Experiments:
A-375 = test: Cytotoxicity in human A375 cells assessed as cell viability at 10 uM incubated for 48 hrs by MTT assay; assay type: functional; conditions: A-375, 48 h, read-out: Activity
[1] = molecular target: T1, Indoleamine 2,3-dioxygenase 1 (Homo sapiens, UniProt P14902); test: Inhibition of human recombinant IDO1 assessed as reduction in kynurenine production at 1 uM using L-tryptophan incubated for 60 mins by Ehrlich's reagent based assay
Target sequence in this assay (P14902 whole entry, looked up): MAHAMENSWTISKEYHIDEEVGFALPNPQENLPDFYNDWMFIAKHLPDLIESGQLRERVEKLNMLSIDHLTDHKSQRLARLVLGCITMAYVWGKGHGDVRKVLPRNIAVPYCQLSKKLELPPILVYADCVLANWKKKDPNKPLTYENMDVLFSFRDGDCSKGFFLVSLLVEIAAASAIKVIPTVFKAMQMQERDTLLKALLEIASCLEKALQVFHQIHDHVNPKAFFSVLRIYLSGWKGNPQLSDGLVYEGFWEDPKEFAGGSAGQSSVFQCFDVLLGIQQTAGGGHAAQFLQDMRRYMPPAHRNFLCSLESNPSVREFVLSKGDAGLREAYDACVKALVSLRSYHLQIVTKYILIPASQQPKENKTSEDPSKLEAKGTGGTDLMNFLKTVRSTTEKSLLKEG

[2] = molecular target: T1, Indoleamine 2,3-dioxygenase 1; test: Inhibition of human recombinant IDO1 assessed as reduction in kynurenine production using L-tryptophan incubated for 60 mins by Ehrlich's reagent based assay
Target sequence in this assay (P14902 whole entry): as the sequence (P14902 whole entry, looked up) above

SMILES | viability at 10 µM (A-375) [%] | inhibition [1] [%] | IC50 [2] [nM]
CN(CC(=O)NCc1cnc2scc(-c3ccc(Br)cc3)n12)C(=O)Cc1cccc(O)c1 | 100 | 63 | 450
O=C(COC(=O)Cc1ccccc1[N+](=O)[O-])NCc1cnc2scc(-c3ccc(Br)cc3)n12 | 100 | 41 | 
N#Cc1ccc(CC(=O)OCC(=O)NCc2cnc3scc(-c4ccc(Br)cc4)n23)cc1 | 100 | 69 | 340
CN(CC(=O)NCc1cnc2scc(-c3ccc(Br)cc3)n12)C(=O)Cc1ccccc1[N+](=O)[O-] | 92 | 67 | 730
CN(CC(=O)NCc1cnc2scc(-c3ccc(Br)cc3)n12)C(=O)Cc1ccc(O)c(O)c1 | 99 | 34 | 
CN(CC(=O)NCc1cnc2scc(-c3ccc(Br)cc3)n12)C(=O)Cc1ccc(O)cc1 | 91 | 55 | 
CN(CC(=O)NCc1cnc2scc(-c3ccc(Br)cc3)n12)C(=O)Cc1cccc([N+](=O)[O-])c1 | 93 | 65 | 630
CN(CC(=O)NCc1cnc2scc(-c3ccc(Br)cc3)n12)C(=O)Cc1cccc(Cl)c1 | 83 | 39 | 
O=C(COC(=O)Cc1ccc([N+](=O)[O-])cc1)NCc1cnc2scc(-c3ccc(Br)cc3)n12 | 100 | 39 | 
O=C(COC(=O)Cc1cccc(Cl)c1)NCc1cnc2scc(-c3ccc(Br)cc3)n12 | 100 | 39 | 
CN(CC(=O)NCc1cnc2scc(-c3ccc(Br)cc3)n12)C(=O)Cc1ccc(C#N)cc1 | 92 | 18 | 
NS(=O)(=O)NCCNc1nonc1/C(=N/O)Nc1ccc(F)c(Br)c1 [EPACADOSTAT] | 100 |  | 
CN(CC(=O)NCc1cnc2scc(-c3ccc(Br)cc3)n12)C(=O)Cc1ccc([N+](=O)[O-])cc1 | 100 | 66 | 810
N#Cc1ccc(NC(=O)NCc2cnc3scc(-c4ccc(Br)cc4)n23)cc1 | 99 | 97 | 80
CN(CC(=O)NCc1cnc2scc(-c3ccc(Br)cc3)n12)C(=O)c1ccccc1 | 96 | 50 | 
CN(CC(=O)NCc1cnc2scc(-c3ccc(Br)cc3)n12)C(=O)Cc1ccccc1O | 88 | 0 | 
CN(CC(=O)NCc1cnc2scc(-c3ccc(Br)cc3)n12)C(=O)Cc1ccc(Cl)cc1 | 64 | 51 | 
O=C(COC(=O)Cc1ccc(Cl)cc1)NCc1cnc2scc(-c3ccc(Br)cc3)n12 | 100 | 32 | 
CN(CC(=O)NCc1cnc2scc(-c3ccc(Br)cc3)n12)C(=O)Cc1ccccc1Cl | 71 | 41 | 
CN(CC(=O)NCc1cnc2scc(-c3ccc(Br)cc3)n12)C(=O)c1ccc(C#N)cc1 | 87 | 47 | 

SMILES | viability at 10 µM (A-375) [%] | inhibition [1] [%] | IC50 [2] [nM]
N[C@H](C(=O)NCC(=O)NCc1cnc2scc(-c3ccc(Br)cc3)n12)c1ccc(O)cc1 | 100 | 0 | 
O=C(CO)NCc1cnc2scc(-c3ccc(Br)cc3)n12 | 97 | 48 | 
O=C(COC(=O)Cc1cccc(O)c1)NCc1cnc2scc(-c3ccc(Br)cc3)n12 | 100 | 59 | 
O=C(CNC(=O)Cc1ccccc1)NCc1cnc2scc(-c3ccc(Br)cc3)n12 | 100 | 46 | 
N#Cc1cccc(CC(=O)OCC(=O)NCc2cnc3scc(-c4ccc(Br)cc4)n23)c1 | 97 | 29 | 
N[C@H](C(=O)NCC(=O)NCc1cnc2scc(-c3ccc(Br)cc3)n12)c1ccccc1 | 96 | 10 | 
O=C(COC(=O)Cc1ccccc1)NCc1cnc2scc(-c3ccc(Br)cc3)n12 | 98 | 72 | 580
Cn1cc(C[C@H](N)C(=O)O)c2ccccc21 [(L)-1-METHYLTRYPTOPHAN] | 100 |  | 
O=C(COC(=O)Cc1ccccc1Cl)NCc1cnc2scc(-c3ccc(Br)cc3)n12 | 100 | 46 | 
CN(CC(=O)NCc1cnc2scc(-c3ccc(Br)cc3)n12)C(=O)c1ccc([N+](=O)[O-])cc1 | 100 | 45 | 
O=C(COC(=O)Cc1ccccc1O)NCc1cnc2scc(-c3ccc(Br)cc3)n12 | 100 | 73 | 870
O=C(COC(=O)Cc1ccc(O)c(O)c1)NCc1cnc2scc(-c3ccc(Br)cc3)n12 | 99 | 40 | 
CN(CC(=O)NCc1cnc2scc(-c3ccc(Br)cc3)n12)C(=O)Cc1ccccc1 | 100 | 62 | 690
O=C(COC(=O)Cc1ccc(O)cc1)NCc1cnc2scc(-c3ccc(Br)cc3)n12 | 100 | 89 | 200
COc1ccc(C(=O)N(C)CC(=O)NCc2cnc3scc(-c4ccc(Br)cc4)n23)cc1 | 82 | 49 | 
CC(=O)N(C)CC(=O)NCc1cnc2scc(-c3ccc(Br)cc3)n12 | 98 | 21 | 
CN(CC(=O)NCc1cnc2scc(-c3ccc(Br)cc3)n12)C(=O)Cc1cccc(C#N)c1 | 90 | 0 | 
COc1cccc(C(=O)N(C)CC(=O)NCc2cnc3scc(-c4ccc(Br)cc4)n23)c1 | 98 | 48 | 
O=C(COC(=O)Cc1cccc([N+](=O)[O-])c1)NCc1cnc2scc(-c3ccc(Br)cc3)n12 | 100 | 50 | 
